The record followed here is BindingDB's records for doi:10.1111/cbdd.12372 (Beijing University of Technology, 2015).

In this assay the target is T1, Casein kinase II subunit alpha [1-337] (Homo sapiens, UniProt P68400).
T1 construct: 1-337
Description: Molecular Docking. The source says: The atomic co-ordinates of CK2α were retrieved from the Protein Data Bank [PDB ID: 3PE1] by deleting the heteroatoms except for water molecules within 6.5 of the ligand. Compounds 12, 23, 10, and 27 were constructed with the SYBYL 8.1 programa using compound CX-4945 as the template and were energy minimized with the Tripos force field. Four compounds were docked into the active site of CK2α using the molecular docking program Genetic Optimization for Ligand Docking (GOLD) version 3.0. The active site of CK2α was defined as a 6.5- -radius sphere centered on CX-4945, which comprise all complete amino acids there in. The crystal structure of CK2a in complex with compound CX-4945 was used to optimize docking parameters and evaluate the reliability of the docking methods. The standard default genetic algorithm (GA) parameters were used for all calculations and applied to predi

T1 sequence (P68400 1-337): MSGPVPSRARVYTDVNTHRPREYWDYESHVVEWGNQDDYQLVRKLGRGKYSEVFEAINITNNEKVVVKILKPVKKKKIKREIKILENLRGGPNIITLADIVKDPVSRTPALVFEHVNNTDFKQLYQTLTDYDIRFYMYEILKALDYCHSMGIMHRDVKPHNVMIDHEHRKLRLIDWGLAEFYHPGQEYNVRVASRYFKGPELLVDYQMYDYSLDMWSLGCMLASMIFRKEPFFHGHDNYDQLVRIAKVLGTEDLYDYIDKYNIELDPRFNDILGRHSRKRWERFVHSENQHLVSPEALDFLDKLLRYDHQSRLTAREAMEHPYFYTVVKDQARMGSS

Turning to `N#Cc1ccc2c(c1)nc(-c1ccc(Cl)cc1)c1ccncc12` [5-(4-chlorophenyl)benzo[c]2,6-naphthyridine-8-carbonitrile (Compound 10)], the half-inhibitory concentration (IC50) is above 2.5 µM.

As usually defined, the IC50 is the concentration that gives 50% inhibition.
